In patent US12156523B2 (priority 2017, dated 2024):

How the values were obtained:
Type in all cases: in vivo
rice (cultivar: Jikkoku) = test: Barrier to growth of rice (phytotoxicity, Example 18); settings: untreated plant length set as 100; 0.2 mg/mL acetone solution diluted 10-fold, 0.25 mL per 1 mL of soil; first leaf stage; comparative compounds (Table 38)
Experimental: The acetone solutions of each example compound and compounds described in the prior art documents shown in the below-mentioned Table 38 (hereinafter, referred to as compounds of Comparative Examples 1 to 5, respectively) were prepared such that the content thereof became 0.2 mg/mL, and then diluted to 10-fold with water to be subjected to conducting test. 0.25 mL of the diluted solution per 1 mL of the soil was made to be absorbed in the soil. Then, rice seeds (cultivar: Jikkoku) subjected to forcing to germination were seeded in the soil to be cultivated in plant cultivation chambers. The plant length of the rice grown to the first leaf stage was measured, and the ratio of the plant length, relative to the untreated plant length set as 100, (hereinafter, referred to as “the ratio of plant length relative to untreated plant length”) was calculated. The presence or absence of the barrier to growth was determined from the calculated ratio.

Pyricularia oryzae [1] = test: whole plant or invertebrate; settings: soil, read-out: Control value (number of lesions at the second leaf)
Pyricularia oryzae [2] = test: whole plant or invertebrate; settings: foliar, read-out: Control value (number of lesions at the second leaf)
[3] = tested on: cucumber bacterial spot disease; test: Activity against cucumber bacterial spot disease (Example 17); settings: cucumber cv. Natsusuzumi; wettable powder diluted 6666-fold, 20 mL per pot absorbed in the soil; 28 days after settled planting
Experimental: Wettable powders of the example compound 1-134 were prepared in accordance with the below-mentioned Preparation Example 1. The wettable powders were diluted to 6666-fold with water, and then 20 mL of the diluted solution per pot was applied to cucumber (cultivar: Natsusuzumi) cultivated to the third leaf stage in pots by making the diluted solution to be absorbed in the soil, and then the cucumber was subjected to settled planting. 28 days after the settled planting, the number of lesions formed at the 11th true leaves to the 20th true leaves were counted. The control value was calculated from the obtained number of lesions in accordance with the below-mentioned mathematical formula. Control value=((the number of lesions at untreated plants −the number of lesions at treated plants)/the number of lesions at untreated plants)×100

wheat brown rust = test: Activity against wheat brown rust (Example 14); settings: wettable powder (Preparation Example 1) diluted 1000-fold, sprayed twice at 1 L/m^2, examined approx. 4 weeks after second spraying
Experimental: Wettable powders of the example compound 1-135 were prepared in accordance with the below-mentioned Preparation Example 1, followed by diluting the wettable powders to 1000-fold with water to prepare spraying liquids. The prepared spraying liquid was sprayed onto wheat twice at the blooming stage and 10 days prior to the blooming stage at a liquid volume of 1 L/m^2. The lesions on the flag leaf were examined in accordance with the below-mentioned indexes approximately 4 weeks after the second spraying application. The severity was calculated based on the indexes, and the control value was calculated from the obtained severity in accordance with the below-mentioned mathematical formula.
0: No lesions were observed.
1: 1 to 3 lesions were observed.
2: 4 to 10 lesions were observed.
3: 11 to 20 lesions were observed.
4: 21 or more lesions were observed, and the area of lesions was less than half of the leaf surface.
5: 21 or more lesions were confirmed, and the area of lesions was half or more of the leaf surface. Control value=((the severity at untreated plants −the severity at treated plants)/the severity at untreated plants)×100

Structure (SMILES) | Ratio of plant length relative to untreated plant length (rice (cultivar: Jikkoku)) | pest or weed control at 10 µg/mL (Pyricularia oryzae [1]) [%] | pest or weed control at 200 ppm (Pyricularia oryzae [2]) [%] | other results
O=C(O)c1cc(Cl)nc(Cl)c1 [Comparative Example 1] | 49 | – | – | –
C#CCOC(=O)c1cc(Cl)nc(Cl)c1 [Comparative Example 2] | 52 | – | – | –
O=C(NCCc1ccccc1)c1cc(Cl)nc(Cl)c1 [Comparative Example 3] | 45 | – | – | –
O=C(COC(=O)c1cc(Cl)nc(Cl)c1)c1ccccc1 [Comparative Example 4] | 64 | – | – | –
O=C(OCc1ccc(Cl)nc1)c1cc(Cl)nc(Cl)c1 [Comparative Example 5] | 66 | – | – | –
CC(C)Oc1cccc(NC(=O)c2cc(F)nc(F)c2)c1 [Example 1-134] | – | ≥ 80 | ≥ 80 | pest or weed control at 25 ppm (Pyricularia oryzae [2]): ≥ 80%; Control value (number of lesions at 11th to 20th true leaves) [3]: ≥ 60
COc1cccc(NC(=O)c2cc(F)nc(F)c2)c1 [Example 1-135] | – | ≥ 80 | ≥ 80 | pest or weed control at 25 ppm (Pyricularia oryzae [2]): ≥ 80%; Control value (severity on the flag leaf) (wheat brown rust): ≥ 50
COc1cccc(OC(=O)c2cc(F)nc(F)c2)c1 [Example 1-187] | – | ≥ 80 | ≥ 80 | –
CC(=O)c1cccc(NC(=O)c2cc(F)nc(F)c2)c1 [Example 1-190] | – | ≥ 80 | ≥ 80 | –
O=C(Nc1cccc(C(F)(F)F)c1)c1cc(F)nc(F)c1 [Example 1-191] | – | ≥ 80 | ≥ 80 | –
O=C(Nc1cccc(O)c1)c1cc(F)nc(F)c1 [Example 1-193] | – | ≥ 80 | ≥ 80 | –
O=C(Oc1cccc2ccccc12)c1cc(F)nc(F)c1 [Example 1-202] | – | ≥ 80 | ≥ 80 | –
N#Cc1ccc(OC(=O)c2cc(F)nc(F)c2)cc1 [Example 1-204] | – | ≥ 80 | ≥ 80 | –
COc1ccccc1OC(=O)c1cc(F)nc(F)c1 [Example 1-210] | – | ≥ 80 | ≥ 80 | –
Fc1cc(C2=NCCO2)cc(F)n1 [Example 4-4] | – | ≥ 80 | ≥ 80 | –
